These results are taken from publication PMC11984905, “Chiral Switch of Gadopiclenol: New Standards in MRI Probes” (Advanced Science, 2025).

A short description of this assay: Kinetic inertness: dissociation of Gd(III)-complexes in 0.01–1.0 M HCl followed by HPLC. The class given is physicochemical. As to conditions: for k d at pH = 7.4: dissociation rate calculated at pH 7.4, 25 °C; for k1: proton-assisted dissociation, 25 °C, [H+]≤0.15 M: [Na+]+[H+]=0.15 M; for acid-catalyzed dissociation, times slower than Gd(III)-complex with BT-DO3A / acid-catalyzed dissociation, times slower than Gd(III)-complex with HP-DO3A: ratio of k1. An excerpt:
The kinetic inertness of the Gd(III)‐complexes with the different isomers formed by rac‐L1 and rac‐L2 was characterized by the rates of the dissociation reactions taking place in 0.01–1.0 M HCl solution. The dissociation reactions were followed by measuring the integral values of the Gd(III)‐complexes with the different isomers of rac‐L1 and rac‐L2 ligands with HPLC. The conditions of the HPLC experiments for the kinetic studies of the Gd(III)‐complexes with rac‐L1 and rac‐L2 ligands are summarized in Tables S1 and S2 (Supporting Information), respectively. The samples were kept at 25 °C in a well‐closed vessel. For the HPLC analysis, 100 µL samples were withdrawn from the solutions. The measurements were performed with 0.2 mM solution of Gd(III)‐complexes. The pseudo‐first‐order rate constants (k d) were calculated by fitting the HPLC integral – t data pairs to Equation (1). (1) At=Ar−Ave^−kdt+Av where A r, A v, and A t are the integral values of the reactants, the product, and reaction time t. The temperature was maintained at 25 °C and the ionic strength of the solutions was kept constant at [H^+]≤0.15 M, [HCl]+[NaCl] = 0.15 M. The calculation of the kinetic parameters was performed by the fitting of the absorbance – time and relaxation rate – time data pairs with the Micromath Scientist computer program (version 2.0, Salt Lake City, UT, USA).
The dissociation reactions of Gd(III)-complexes with the different isomers formed by rac-L1 and rac-L2 have been studied by HPLC method (Tables S1 and S2) at 25 °C in 0.01 – 1.0 M HCl solution to guarantee the pseudo-first-order kinetic condition. Area values as a function of time for the dissociation reactions of Gd(III)-complexes formed with the different stereoisomers of rac-L1 obtained at 25 °C in 1.0 M HCl solution are shown in Figure S48.
In the presence of HCl excess, the decomplexation of Gd(III)-complexes can be treated as a pseudo-first-order process and the reaction rate can be expressed by Equation (S9), where kd is a pseudo-first-order rate constant, [GdL]t and [GdL]tot are the concentrations of the GdL species at time t and the total concentration of the complex, respectively.
The rates of the dissociation reactions have been studied at different concentrations of HCl ([HCl]=0.01 – 1.0 M, 25 °C). The kd values obtained for the Gd(III)-complexes with the different isomers of rac-L1 and rac-L2 ligands as a function of [H^+] are shown in Figures S49 and S50.
The obtained kd pseudo-first order rate constants are directly proportional to the concentration of H^+. The increase in the kd values with increasing concentration of H^+ can be interpreted in terms of the proton assisted dissociation of Gd(III)-complexes. […] The proton assisted dissociation of Gd(III)-complexes might be explained by the equilibrium formation of a protonated *Gd(HL) intermediate (Equation (S11)), which dissociates spontaneously (Equation (12)).
where k0, and k1 = kGdHL×K^HGdHL are the rate constants characterizing the spontaneous and proton-assisted dissociation of Gd(III)-complexes. The protonation constant (K^HGdHL) of Gd(DOTA)-like complexes are very small (Gd(DOTA): K^HGdHL =14).^[22] By considering very low protonation constant of Gd(III)-complexes with A, C and D isomers of rac-L1 and A’, C’ and D’ isomers of rac-L2 ligands (K^HGdHL<<10), the denominator of Equation (S14) (1>> K^HGdHL [H^+]) can be neglected, so Equation (S14) can be simplified in the form of Equation (S15). The k0 and k1 values of the Gd(III) complexes with A, C and D isomers of rac-L1, and A’, C’ and D’ isomers of rac-L2 ligands have been calculated by fitting of the kinetic data (Figures S49 and S50) to Equation (S15).
The k1 rate and logK^HGdHL protonation constants characterizing the acid-catalyzed decomplexation of Gd(III)-complexes formed with the different stereoisomers of rac-L1 and rac-L2 are presented and compared with those of [Gd(PCTA)], [Gd(DOTA)]^-, [Gd(HP-DO3A)] and [Gd(BT-DO3A)] in Table S19.

As for `O=C([O-])CCC(C(=O)[O-])N1CCN(C(CCC(=O)[O-])C(=O)[O-])Cc2cccc(n2)CN(C(CCC(=O)[O-])C(=O)[O-])CC1.[Gd+3]` (racemic) [[Gd(ent‐L1)]^3−], the k1 result was “(1.4±0.1) ×10^-6 M^-1s^-1”. In addition, the “k d at pH = 7.4” value (listed as RRR/SSS (C)) is given as “RRR/SSS (C): 5.61 × 10^−14 s^−1”. Further, the “k d at pH = 7.4” value (listed as [Gd(rac-L1)] C (RRR/SSS)) is on record as 5.61×10^-14 s^−1.
Take `O=C(CCC(C(=O)[O-])N1CCN(C(CCC(=O)NCC(O)CO)C(=O)[O-])Cc2cccc(n2)CN(C(CCC(=O)NCC(O)CO)C(=O)[O-])CC1)NCC(O)CO.[Gd+3]` (stereo not drawn) [[Gd(ent‐L2)]]: the k1 result is “(4.4±0.2) ×10^-6 M^-1s^-1”. Besides, for the setting “listed as RRR/SSS (D′)”, the “k d at pH = 7.4” value is recorded as “RRR/SSS (D′): 1.74 × 10^−13 s^−1”. The “k d at pH = 7.4” value (listed as [Gd(rac-L2)] D’ (RRR/SSS)) is reported as 1.74×10^-13 s^−1.
`O=C(O)CCC(C(=O)O)N1CCN(C(CCC(=O)O)C(=O)O)Cc2cccc(n2)CN(C(CCC(=O)O)C(=O)O)CC1` (stereo not drawn) [ent‐L1]: the “acid-catalyzed dissociation, times slower than Gd(III)-complex with BT-DO3A” value is 24 times and the “acid-catalyzed dissociation, times slower than Gd(III)-complex with HP-DO3A” value amounted to 207 times.
For `O=C(CCC(C(=O)O)N1CCN(C(CCC(=O)NCC(O)CO)C(=O)O)Cc2cccc(n2)CN(C(CCC(=O)NCC(O)CO)C(=O)O)CC1)NCC(O)CO` (stereo not drawn) [ent‐L2], in that order: 7 times and 66 times.
